# Patent US20260115187A1, “TRICYCLIC SKELETON COMPOUND AND USE THEREOF IN PREPARATION OF ANTITUMOR DRUG” (ZHONGSHAN HOSPITAL, FUDAN UNIVERSITY, priority 2024, published 2026)
# Where two headings read alike, the source gives them in different places.
# Legend:
# [1] = tested on: MHCC97H KSR2 OE (97H cells overexpressing KSR2); assay: Cell IC50 assay (CCK8 cell viability), MHCC97H KSR2 OE; assay type: cell-based; details: Homo sapiens
# Procedure: (§1) (1) Cell Preparation: Hepatoma cells (PLC/PRF/5, sourced from the Chinese Academy of Sciences; MHCC97H, sourced from this research institute) in good growth condition are prepared. The cells are trypsinized, diluted, and seeded into 96-well cell culture plates. 1,000-3,000 cells are added per well. The plates are then placed in a cell culture incubator at 37° C. with 5% CO2. Drugs are added after the cells have adhered for 24 h.
# (§2) (2) Drug Addition: The drugs are subjected to gradient dilution, typically setting 9 concentrations. Control groups containing no drug medium and medium containing only the drug solvent are also set up. The diluted drugs are added to the cell culture plates seeded the previous day. The plates are incubated for 72 h.
# (§3) (3) CCK8 Assay for Cell Viability: CCK8 is mixed with culture medium at a 1:10 ratio. 100 μL of this mixture is added to each well of the cell culture plate. After incubating for 2-4 h, the OD values are measured using a microplate reader.
# (§4) (4) Data Analysis: Based on the corresponding OD values, the data are compiled, IC50 curves are plotted, and the IC50 values are obtained.
# (§5) (5) IC50 Verification: The theoretical IC50 value is identified from the IC50 curve. Drug concentrations at ½ times, 1 time, and 2 times this theoretical value are used for verification.
# [2] = tested on: PLC/PRF/5 KSR2 OE (PLC cells overexpressing KSR2); assay: Cell IC50 assay (CCK8 cell viability), PLC/PRF/5 KSR2 OE; assay type: cell-based; details: Homo sapiens, read-out: IC50 value of cell viability, PLC/PRF/5 KSR2 OE (PLC cells overexpressing KSR2)
# Procedure: as §1, §2, §3, §4, §5
# [3] = hepatoma cells, 72 h incubation, CCK8, read-out: IC50 value of cell viability, MHCC97H KSR2 OE (97H cells overexpressing KSR2)
# [4] = PLC-PRF-5, hepatoma cells, 72 h incubation, CCK8
Compound,"IC50 [1, 3] [µM]","IC50 [2, 4] [µM]","IC50 ([1]; read-out: IC50 value of cell viability, MHCC97H KSR2 OE (97H cells overexpressing KSR2)) [µM]","IC50 ([2]; PLC-PRF-5, 72 h) [µM]"
Cn1nc(C(=O)NCCCN2CCC(N3CCN(CCO)CC3)CC2)c2c1-c1ccccc1SC2 [Compound 67],24,20,–,–
CN1CCN(C2CCN(CCCNC(=O)c3nn(C)c4c3COc3cc(Cl)c(C#N)cc3-4)CC2)CC1 [Compound 113],0.8,1,–,–
CN1CCN(C2CCN(CC(F)(F)CNC(=O)c3nn(C)c4c3CSc3ccccc3-4)CC2)CC1 [Compound 33],18,19,–,–
CN1CCN(C2CCN(CCCNC(=O)c3n[nH]c4c3COc3cc(C(F)(F)F)c(C#N)cc3-4)CC2)CC1 [Compound 130],4,10,–,–
CN1CCN(C2CN(CCCNC(=O)c3c4c(nn3C)-c3ccc(OC(F)(F)F)cc3OC4)C2)CC1 [Compound 108],8,5,–,–
Cn1nc(C(=O)NCCCN2CCC(O)(c3ccccc3)CC2)c2c1-c1ccccc1SC2 [Compound 32],16,17,–,–
CCN1CCN(C2CCN(CCCNC(=O)c3n[nH]c4c3COc3cc(Cl)c(C#N)cc3-4)CC2)CC1 [Compound 129],4,5,–,–
Cn1nc(C(=O)NCCCN2CCC(NC(=O)C3CC3)CC2)c2c1-c1ccccc1SC2 [Compound 57],21,2,–,–
CN1CCN(C2CCN(CCCNC(=O)c3nn(C)c4c3COc3cc(C#N)ccc3-4)CC2)CC1 [Compound 94],10,7,–,–
CN1CCN(C2CN(C3CC(CNC(=O)c4nn(C)c5c4CSc4cc(Cl)ccc4-5)C3)C2)CC1 (centres unmarked) [Compound 110],9,4,–,–
Cn1nc(C(=O)NCCCN2CCC(N3CCCCC3)CC2)c2c1-c1ccccc1SC2 [Compound 13],2,2,–,–
COc1ccc(N2CCN(CCCNC(=O)c3nn(C)c4c3CSc3ccccc3-4)CC2)cc1 [Compound 27],13,31,–,–
CN1CCN(C2CCN(CCCNC(=O)c3nn(C4COC4)c4c3CSc3ccccc3-4)CC2)CC1 [Compound 88],41,22,–,–
CN1CCN(C2CN(CCCNC(=O)c3nn(C)c4c3CSc3ccccc3-4)C2)CC1 [Compound 85],19,25,–,–
CN1CCN(C2CCN(CCCNC(=O)c3nn(C)c4c3CS(=O)(=O)c3ccccc3-4)CC2)CC1 [Compound 75],105,18,–,–
Cn1nc(C(=O)NCCCN2CCC(N3CCNCC3)CC2)c2c1-c1ccccc1SC2 [Compound 41],7,8,–,–
Cn1nc(C(=O)NCC(F)(F)CN2CCC(N3CCOCC3)CC2)c2c1-c1ccccc1SC2 [Compound 35],22,28,–,–
Cn1nc(C(=O)NCCCN2CCC(N3CCN(CC4CC4)CC3)CC2)c2c1-c1ccccc1SC2 [Compound 64],6,5,–,–
CN(C)C1CCN(CCCNC(=O)c2nn(C)c3c2CSc2ccccc2-3)CC1 [Compound 45],6,5,–,–
Cn1nc(C(=O)NCCCN2CCC(N3CCC(F)(F)C3)CC2)c2c1-c1ccccc1SC2 [Compound 43],43,41,–,–
CN1CCN(C2CCN(CCCNC(=O)c3nn(C)c4c3COc3cc(Cl)ccc3-4)CC2)CC1 [Compound 68],2,0.7,–,–
CN1CCN(C2CCN(CCCNC(=O)c3nn(C)c4c3CSc3ccccc3-4)CC2)CC1 [Compound 30],6,9,–,–
CN1CCN(C2CCN(CCCNC(=O)c3n[nH]c4c3CSc3ccccc3-4)CC2)CC1 [Compound 83],10,18,–,–
Cn1nc(C(=O)NCCCN2CCN(C3CCC(F)(F)CC3)CC2)c2c1-c1ccccc1SC2 [Compound 1],–,–,41,45
CN1CCN(C2CN(CCCNC(=O)c3nn(C)c4c3CSc3cc(Cl)ccc3-4)C2)CC1 [Compound 97],5,7,–,–
CN(Cc1ccccc1)C1CCN(CCCNC(=O)c2nn(C)c3c2CSc2ccccc2-3)CC1 [Compound 65],14,8,–,–
CN(C)CC1CCN(CCCNC(=O)c2nn(C)c3c2CSc2ccccc2-3)C1 (centres unmarked) [Compound 53],63,92,–,–
CCN1CCN(C2CN(C3CC(CNC(=O)c4nn(C)c5c4CSc4ccccc4-5)C3)C2)CC1 (centres unmarked) [Compound 80],8,28,–,–
